Measurements: patent publication US10501461B2, “Tyrosine amide derivatives as Rho-kinase inhibitors” (CHIESI FARMACEUTICI S.P.A., priority 2017, dated 2019)

Assays:
Rho kinase 1 (ROCK-I) = Rho kinase 1 (ROCK-I) (Homo sapiens, UniProt Q13464); test: In vitro Rho kinase inhibitory activity assay (ADP-Glo), Rho kinase 1; type: biochemical; details: 10 μM ATP, 25° C., expressed as range of activity
Method: (§1) The effectiveness of compounds of the present invention to inhibit Rho kinase activity can be determined in a 10 μl assay containing 40 mM Tris pH7.5, 20 mM MgCl2 0.1 mg/ml BSA, 50 μM DTT and 2.5 μM peptide substrate (Myelin Basic Protein) using an ADP-Glo kit (Promega). Compounds were dissolved in DMSO such that the final concentration of DMSO was 1% in the assay. All reactions/incubations are performed at 25° C. Compound (2 ul) and either Rho kinase 1 or 2 (4 μl) were mixed and incubated for 30 mins. Reactions were initiated by addition of ATP (4 μl) such that the final concentration of ATP in the assay was 10 μM. After a 1 hour incubation 10 μl of ADP-Glo Reagent was added and after a further 45 minute incubation 20 ul of Kinase Detection Buffer was added and the mixture incubated for a further 30 minutes. The luminescent signal was measured on a luminometer. […] Compounds were tested in dose-response format and the inhibition of kinase activity was calculated at each concentration of compound. To determine the IC50 (concentration of compound required to inhibit 50% of the enzyme activity) data were fit to a plot of % inhibition vs Log10 compound concentration using a sigmoidal fit with a variable slope and fixing the maximum to 100% and the minimum to 0%. To determine the Ki values the Cheng-Prusoff equation was utilized (Ki=IC50/(1+[S]/Km).

Rho kinase 2 (ROCK-II) = Rho kinase 2 (ROCK-II) (Homo sapiens, UniProt O75116); test: In vitro Rho kinase inhibitory activity assay (ADP-Glo), Rho kinase 2; type: biochemical; details: 10 μM ATP, 25° C., expressed as range of activity
Method: as §1

Rho kinase 1 (ROCK-I), sequence (Q13464 whole entry): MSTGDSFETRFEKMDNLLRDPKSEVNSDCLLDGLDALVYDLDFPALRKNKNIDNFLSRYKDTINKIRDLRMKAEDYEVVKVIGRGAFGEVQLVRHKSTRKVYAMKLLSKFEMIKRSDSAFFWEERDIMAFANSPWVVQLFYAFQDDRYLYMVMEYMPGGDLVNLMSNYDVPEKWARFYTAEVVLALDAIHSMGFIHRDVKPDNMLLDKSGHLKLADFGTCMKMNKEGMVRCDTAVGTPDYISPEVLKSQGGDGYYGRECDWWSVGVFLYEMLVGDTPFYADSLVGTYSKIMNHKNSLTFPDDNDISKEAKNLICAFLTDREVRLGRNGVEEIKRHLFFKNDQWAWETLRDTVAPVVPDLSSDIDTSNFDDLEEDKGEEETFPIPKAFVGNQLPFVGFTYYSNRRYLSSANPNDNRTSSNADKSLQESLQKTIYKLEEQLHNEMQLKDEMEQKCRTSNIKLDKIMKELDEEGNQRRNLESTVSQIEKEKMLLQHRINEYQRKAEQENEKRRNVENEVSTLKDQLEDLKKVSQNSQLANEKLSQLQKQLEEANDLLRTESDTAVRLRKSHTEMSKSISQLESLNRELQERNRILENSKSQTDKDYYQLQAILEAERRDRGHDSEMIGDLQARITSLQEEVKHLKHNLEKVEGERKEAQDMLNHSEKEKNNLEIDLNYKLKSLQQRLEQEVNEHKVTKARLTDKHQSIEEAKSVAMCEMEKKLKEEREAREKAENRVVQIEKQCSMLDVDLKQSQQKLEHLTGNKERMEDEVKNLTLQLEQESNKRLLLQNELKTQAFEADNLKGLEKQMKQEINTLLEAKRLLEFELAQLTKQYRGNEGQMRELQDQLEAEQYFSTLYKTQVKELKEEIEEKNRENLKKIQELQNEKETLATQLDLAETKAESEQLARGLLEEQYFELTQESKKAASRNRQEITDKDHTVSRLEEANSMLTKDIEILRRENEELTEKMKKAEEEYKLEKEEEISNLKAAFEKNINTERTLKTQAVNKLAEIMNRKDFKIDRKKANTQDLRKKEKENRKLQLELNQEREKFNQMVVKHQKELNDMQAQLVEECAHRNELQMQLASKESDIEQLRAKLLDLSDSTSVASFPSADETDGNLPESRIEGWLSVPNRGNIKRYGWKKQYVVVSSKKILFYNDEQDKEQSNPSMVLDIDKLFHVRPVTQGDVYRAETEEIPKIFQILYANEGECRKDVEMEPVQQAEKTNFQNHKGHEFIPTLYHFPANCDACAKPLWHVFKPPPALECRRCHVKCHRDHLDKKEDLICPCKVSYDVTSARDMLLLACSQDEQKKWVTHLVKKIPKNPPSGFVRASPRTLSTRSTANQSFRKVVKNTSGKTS
Rho kinase 2 (ROCK-II), sequence (O75116 whole entry): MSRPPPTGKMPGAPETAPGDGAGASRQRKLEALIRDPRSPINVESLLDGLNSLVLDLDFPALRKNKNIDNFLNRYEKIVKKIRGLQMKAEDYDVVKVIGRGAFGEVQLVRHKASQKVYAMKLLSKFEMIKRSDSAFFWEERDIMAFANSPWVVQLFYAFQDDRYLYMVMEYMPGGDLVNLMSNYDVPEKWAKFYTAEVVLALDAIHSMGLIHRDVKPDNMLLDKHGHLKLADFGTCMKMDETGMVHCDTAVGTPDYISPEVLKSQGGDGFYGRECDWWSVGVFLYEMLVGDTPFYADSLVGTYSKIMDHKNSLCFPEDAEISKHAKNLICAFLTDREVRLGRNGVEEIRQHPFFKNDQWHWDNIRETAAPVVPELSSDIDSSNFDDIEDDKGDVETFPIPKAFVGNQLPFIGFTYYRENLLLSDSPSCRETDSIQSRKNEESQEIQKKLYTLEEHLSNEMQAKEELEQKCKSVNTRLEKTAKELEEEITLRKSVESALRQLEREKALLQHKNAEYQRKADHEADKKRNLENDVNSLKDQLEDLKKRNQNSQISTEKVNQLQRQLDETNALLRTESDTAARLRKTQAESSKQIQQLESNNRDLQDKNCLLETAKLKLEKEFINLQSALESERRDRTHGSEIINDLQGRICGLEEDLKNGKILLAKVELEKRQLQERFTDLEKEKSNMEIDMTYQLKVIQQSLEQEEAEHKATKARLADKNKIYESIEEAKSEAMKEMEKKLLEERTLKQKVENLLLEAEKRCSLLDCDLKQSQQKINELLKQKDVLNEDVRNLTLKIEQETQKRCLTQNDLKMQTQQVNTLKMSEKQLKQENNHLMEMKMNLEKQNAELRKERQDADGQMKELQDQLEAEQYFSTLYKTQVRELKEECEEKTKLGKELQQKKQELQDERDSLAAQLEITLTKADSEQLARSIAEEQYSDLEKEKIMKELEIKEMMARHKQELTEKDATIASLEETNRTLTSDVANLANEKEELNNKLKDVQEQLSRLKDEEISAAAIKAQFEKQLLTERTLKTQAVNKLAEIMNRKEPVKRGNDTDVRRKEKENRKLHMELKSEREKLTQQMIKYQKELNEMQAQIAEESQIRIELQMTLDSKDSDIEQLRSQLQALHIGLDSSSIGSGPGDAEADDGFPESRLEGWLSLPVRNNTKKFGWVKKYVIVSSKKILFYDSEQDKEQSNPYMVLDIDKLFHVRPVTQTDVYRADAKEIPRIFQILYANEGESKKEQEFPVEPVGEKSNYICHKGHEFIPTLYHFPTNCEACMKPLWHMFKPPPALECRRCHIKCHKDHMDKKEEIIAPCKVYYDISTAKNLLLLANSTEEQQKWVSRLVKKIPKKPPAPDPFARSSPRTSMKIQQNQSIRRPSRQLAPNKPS

SMILES | Ki (Rho kinase 1 (ROCK-I)) [nM] | Ki (Rho kinase 2 (ROCK-II)) [nM]
Cc1c[nH]c2nccc(Oc3ccc(C[C@@H](N)C(=O)NCC4CCCCC4)cc3)c12 [Example 140, (R)-2-amino-N-(cyclohexylmethyl)-3-(4-((3-methyl-1H-pyrrolo[2,3-b]pyridin-4-yl)oxy)phenyl)propanamide] | 3 to 30 | 3 to 30
Cc1c[nH]c2nccc(Oc3ccc(C[C@H](N)C(=O)N4CCN(C(=O)c5ccccc5)CC4)cc3F)c12 [Example 167, (S)-2-amino-1-(4-benzoylpiperazin-1-yl)-3-(3-fluoro-4-((3-methyl-1H-pyrrolo[2,3-b]pyridin-4-yl)oxy)phenyl)propan-1-one] | < 3 | < 3
N[C@H](Cc1cc(F)c(Oc2ccnc3[nH]ccc23)c(F)c1)C(=O)NC1CCCCC1 [Example 229, (R)-3-(4-((1H-pyrrolo[2,3-b]pyridin-4-yl)oxy)-3,5-difluorophenyl)-2-amino-N-cyclohexylpropanamide] | 3 to 30 | 3 to 30
Cc1c[nH]c2nccc(Oc3ccc(CC(N)C(=O)N4CCN(CCc5ccccc5)CC4)cc3F)c12 (stereo not drawn) [Example 53, 2-amino-3-(3-fluoro-4-((3-methyl-1H-pyrrolo[2,3-b]pyridin-4-yl)oxy)phenyl)-1-(4-phenethylpiperazin-1-yl)propan-1-one] | < 3 | < 3
COCc1c[nH]c2nccc(Oc3ccc(C[C@H](N)C(=O)N4CCN(C)CC4)cc3F)c12 [Example 215, (S)-2-amino-3-(3-fluoro-4-((3-(methoxymethyl)-1H-pyrrolo[2,3-b]pyridin-4-yl)oxy)phenyl)-1-(4-methylpiperazin-1-yl)propan-1-one] | 3 to 30 | 3 to 30
CC(N)(Cc1ccc(Oc2ccnc3[nH]ccc23)cc1)C(=O)NC1CCOCC1 (stereo not drawn) [Example 151, 3-(4-((1H-pyrrolo[2,3-b]pyridin-4-yl)oxy)phenyl)-2-amino-2-methyl-N-(tetrahydro-2H-pyran-4-yl)propanamide] | > 30 | > 30
N[C@@H](Cc1ccc(Oc2ccnc3[nH]cc(CCO)c23)cc1)C(=O)N1CCN(Cc2ccccc2)CC1 [Example 216, (S)-2-amino-1-(4-benzylpiperazin-1-yl)-3-(4-((3-(2-hydroxyethyl)-1H-pyrrolo[2,3-b]pyridin-4-yl)oxy)phenyl)propan-1-one] | < 3 | < 3
N#Cc1c[nH]c2nccc(Oc3ccc(C[C@H](N)C(=O)NC4CCCCC4)cc3F)c12 [Example 221, (S)-2-amino-3-(4-((3-cyano-1H-pyrrolo[2,3-b]pyridin-4-yl)oxy)-3-fluorophenyl)-N-cyclohexylpropanamide] | < 3 | < 3
COCc1c[nH]c2nccc(Oc3ccc(C[C@H](N)C(=O)NC4CCOCC4)cc3F)c12 [Example 214, (S)-2-amino-3-(3-fluoro-4-((3-(methoxymethyl)-1H-pyrrolo[2,3-b]pyridin-4-yl)oxy)phenyl)-N-(tetrahydro-2H-pyran-4-yl)propanamide] | 3 to 30 | 3 to 30
N[C@@H](Cc1ccc(Oc2ccnc3[nH]ccc23)cc1)C(=O)Nc1nccs1 [Example 105, (S)-3-(4-((1H-pyrrolo[2,3-b]pyridin-4-yl)oxy)phenyl)-2-amino-N-(thiazol-2-yl)propanamide] | 3 to 30 | 3 to 30
Cc1c[nH]c2nccc(Oc3ccc(C[C@H](N)C(=O)N4CCc5ccccc5C4)cc3F)c12 [Example 10, (S)-2-amino-1-(3,4-dihydroisoquinolin-2(1H)-yl)-3-(3-fluoro-4-((3-methyl-1H-pyrrolo[2,3-b]pyridin-4-yl)oxy)phenyl)propan-1-one] | < 3 | < 3
N[C@@H](Cc1ccc(Oc2ccnc3[nH]ccc23)c(F)c1)C(=O)NC1CCCCC1 [Example 146, (S)-3-(4-((1H-pyrrolo[2,3-b]pyridin-4-yl)oxy)-3-fluorophenyl)-2-amino-N-cyclohexylpropanamide] | < 3 | < 3
CN(C(=O)[C@@H](N)Cc1ccc(Oc2ccnc3[nH]ccc23)cc1)C1CCCCC1 [Example 101, (S)-3-(4-((1H-pyrrolo[2,3-b]pyridin-4-yl)oxy)phenyl)-2-amino-N-cyclohexyl-N-methylpropanamide] | 3 to 30 | 3 to 30
Cc1c[nH]c2ncnc(Oc3ccc(C[C@H](N)C(=O)N4CCC(S(=O)(=O)c5ccccc5)CC4)cc3F)c12 [Example 127, (S)-2-amino-3-(3-fluoro-4-((5-methyl-7H-pyrrolo[2,3-d]pyrimidin-4-yl)oxy)phenyl)-1-(4-(phenylsulfonyl)piperidin-1-yl)propan-1-one] | < 3 | < 3
Cc1c[nH]c2nccc(Oc3ccc(C[C@H](N)C(=O)N4CCN(C)C(C)(C)C4)cc3F)c12 [Example 18, (S)-2-amino-3-(3-fluoro-4-((3-methyl-1H-pyrrolo[2,3-b]pyridin-4-yl)oxy)phenyl)-1-(3,3,4-trimethylpiperazin-1-yl)propan-1-one] | < 3 | < 3
NC(Cc1ccc(Oc2ccnc3[nH]ccc23)cc1)C(=O)Nc1ccc(C(F)(F)F)cc1 (single isomer, unassigned) [Example 91B, 3-(4-((1H-pyrrolo[2,3-b]pyridin-4-yl)oxy)phenyl)-2-amino-N-(4-(trifluoromethyl)phenyl)propanamide] | 3 to 30 | 3 to 30
CN[C@@H](Cc1ccc(Oc2ccnc3[nH]ccc23)cc1)C(=O)NC1CCCCC1 [Example 131, (S)-3-(4-((1H-pyrrolo[2,3-b]pyridin-4-yl)oxy)phenyl)-N-cyclohexyl-2-(methylamino)propanamide] | 3 to 30 | < 3
COCCCNC(=O)C(N)Cc1ccc(Oc2ccnc3[nH]cc(C)c23)c(F)c1 (stereo not drawn) [Example 68, 2-amino-3-(3-fluoro-4-((3-methyl-1H-pyrrolo[2,3-b]pyridin-4-yl)oxy)phenyl)-N-(3-methoxypropyl)propanamide] | < 3 | < 3
Cc1c[nH]c2nccc(Oc3ccc(C[C@H](N)C(=O)N4C[C@H]5CN(C)C[C@H]5C4)cc3F)c12 [Example 30, (S)-2-amino-3-(3-fluoro-4-((3-methyl-1H-pyrrolo[2,3-b]pyridin-4-yl)oxy)phenyl)-1-((3aR,6aS)-5-methylhexahydropyrrolo[3,4-c]pyrrol-2(1H)-yl)propan-1-one] | < 3 | < 3
CN(CC1CCCCC1)C(=O)[C@H](N)Cc1ccc(Oc2ccnc3[nH]ccc23)cc1 [Example 143, (R)-3-(4-((1H-pyrrolo[2,3-b]pyridin-4-yl)oxy)phenyl)-2-amino-N-(cyclohexylmethyl)-N-methylpropanamide] | > 30 | > 30
Cc1c[nH]c2nccc(Oc3ccc(CC(N)C(=O)N4CCC(c5ccncc5)C4)cc3F)c12 (racemic) [Example 66, 2-amino-3-(3-fluoro-4-((3-methyl-1H-pyrrolo[2,3-b]pyridin-4-yl)oxy)phenyl)-1-(3-(pyridin-4-yl)pyrrolidin-1-yl)propan-1-one] | < 3 | < 3
Cc1c[nH]c2nccc(Oc3ccc(CC(N)C(=O)N4CCN(Cc5ccc6c(c5)OCO6)CC4)cc3F)c12 (stereo not drawn) [Example 52, 2-amino-1-(4-(benzo[d][1,3]dioxol-5-ylmethyl)piperazin-1-yl)-3-(3-fluoro-4-((3-methyl-1H-pyrrolo[2,3-b]pyridin-4-yl)oxy)phenyl)propan-1-one] | < 3 | < 3
Cc1c[nH]c2nccc(Oc3ccc(C[C@H](N)C(=O)N4CC5(CN(C)C5)C4)cc3F)c12 [Example 3, (S)-2-amino-3-(3-fluoro-4-((3-methyl-1H-pyrrolo[2,3-b]pyridin-4-yl)oxy)phenyl)-1-(6-methyl-2,6-diazaspiro[3.3]heptan-2-yl)propan-1-one] | 3 to 30 | 3 to 30
CN1CCC(NC(=O)[C@@H](N)Cc2ccc(Oc3ccnc4[nH]ccc34)cc2)CC1 [Example 103, (S)-3-(4-((1H-pyrrolo[2,3-b]pyridin-4-yl)oxy)phenyl)-2-amino-N-(1-methylpiperidin-4-yl)propanamide] | 3 to 30 | 3 to 30
Cc1c[nH]c2nccc(Oc3ccc(C[C@H](N)C(=O)NC4(CO)CCOCC4)cc3F)c12 [Example 33, (S)-2-amino-3-(3-fluoro-4-((3-methyl-1H-pyrrolo[2,3-b]pyridin-4-yl)oxy)phenyl)-N-(4-(hydroxymethyl)tetrahydro-2H-pyran-4-yl)propanamide] | < 3 | < 3
Cc1c[nH]c2nccc(Oc3ccc(C[C@H](N)C(=O)N4CCC(c5ccncc5)CC4)cc3F)c12 [Example 12, (S)-2-amino-3-(3-fluoro-4-((3-methyl-1H-pyrrolo[2,3-b]pyridin-4-yl)oxy)phenyl)-1-(4-(pyridin-4-yl)piperidin-1-yl)propan-1-one] | < 3 | < 3
N[C@@H](Cc1ccc(Oc2ccnc3[nH]ccc23)cc1)C(=O)NCc1ccccc1 [Example 97, (S)-3-(4-((1H-pyrrolo[2,3-b]pyridin-4-yl)oxy)phenyl)-2-amino-N-benzylpropanamide] | 3 to 30 | 3 to 30
